According to EP1832585A1, “Thiazole-piperidine derivatives for treatment of hyperproliferative diseases” (Oridis Biomed Forschungs- und Entwicklungs GmbH, priority 2006, dated 2007):
pEC50: −log10 of the molar value.

Legend:
Type in all cases: cell-based
HuH7 = assay: Proliferation assay (CellTiter-Glo luminescent cell viability assay), HuH7; conditions: Huh-7; human hepatoma HuH7; 48 hours incubation; 10% (v/v) FCS; compounds 0 to 20 µM; read-out: EC50 (effective concentration reducing cell proliferation by 50%), inhibition of HuH7 proliferation
Description: (§1) The assay is based on the relation that the ATP content is directly proportional to the number of cells present in the culture. The CellTiter-Glo® assay is performed to measure the proliferation rate of human hepatoma (HuH7, PLC/PRF/5, Hep3B, SK-Hep1), human hepatoblastoma (HepG2), human colon carcinoma (CX-2), human breast cancer (SK-Br-3), human […] (HeLa) and human pancreatic carcinoma (DAN-G) cell lines (see Example 2). […] Further, HepG2 and Hep3B are inhibited with an EC50 of 0.9 and 0.3 µM, respectively.
To determine the inhibition of cell proliferation a luminescent cell viability assay (CellTiter-Glo®; Promega, Madison, USA) is implemented. The assay is based on the relation that the ATP content is directly proportional to the number of cells present in the culture, see Technical Bulletin No. 228 "CellTiter-Glo® Luminescent Cell viability Assay", Revised 2/04. Promeg, Madison, USA. The CellTiter-Glo® assay is performed to measure the proliferation rate of human hepatoma (HuH7, PLC/PRF/5, Hep3B, SK-Hep1), human hepatoblastoma (HepG2), human colon carcinoma (CX-2), human breast cancer (SK-Br-3), human […] (HeLa) and human pancreatic carcinoma (DAN-G) cell lines. 3000 viable cells (viability ≥ 90%) are seeded in opaque-walled 96-well plates and incubated for 24 hours in DMEM, supplemented with 2 mM glutamin. Cell proliferation is stimulated by addition of FCS to a final concentration of 10% (v/v). Simultaneously the compounds I to XVII (see Table 1 A to 1D and 2) are added in a concentration range of 0 to 20 µM. Triplicates are measured for each concentration. Cells and compounds (see Table 1 A to 1D, and 2) are incubated for a period of 48 hours in a volume of 140 µl cell culture medium (10% (v/v) FCS, 2 mM Glutamin, DMEM). The compounds are solved in 60% to 100% (v/v) DMSO at a concentration of 2 mM. The final DMSO concentration under assay conditions never exceeded 1% (v/v). Throughout the assay cells are kept in a humidified incubator (95% rH) at 37°C and 5% CO2. The final cell number is determined after 48 hour of incubation. Therefore 140 µl CellTiter-Glo®Reagent is added in each well. The contents are mixed on an orbital shaker for 2 minutes at room temperature. After subsequent incubation for additional 10 minutes at room temperature the luminescence signal was recorded within 30 min. EC50 values are calculated using the four-parametric Hill equation (Sigma Plot).
Control values are: (1) 10% (v/v) FCS, 2 mM Glutamin, DMEM -> maximum cell number and (2) 2 mM Glutamin, DMEM -> initial cell number.

Sk-Br-3 = assay: Proliferation assay (CellTiter-Glo luminescent cell viability assay), SK-Br-3; conditions: human breast cancer SK-Br-3; 48 hours incubation; 10% (v/v) FCS; read-out: EC50 (effective concentration reducing cell proliferation by 50%), inhibition of SK-Br-3 proliferation
Description: as §1
(§2) To determine the inhibition of cell proliferation a luminescent cell viability assay (CellTiter-Glo®; Promega, Madison, USA) is implemented. The assay is based on the relation that the ATP content is directly proportional to the number of cells present in the culture, see Technical Bulletin No. 228 "CellTiter-Glo® Luminescent Cell viability Assay", Revised 2/04. Promeg, Madison, USA. […] Triplicates are measured for each concentration. […] The final cell number is determined after 48 hour of incubation. […] After subsequent incubation for additional 10 minutes at room temperature the luminescence signal was recorded within 30 min. EC50 values are calculated using the four-parametric Hill equation (Sigma Plot). […]

HepG2 = assay: Proliferation assay (CellTiter-Glo luminescent cell viability assay), HepG2; conditions: human hepatoblastoma HepG2; 48 hours incubation; 10% (v/v) FCS; read-out: EC50, inhibition of HepG2 proliferation
Description: as §1, §2

Hep3B = assay: Proliferation assay (CellTiter-Glo luminescent cell viability assay), Hep3B; conditions: human hepatoma Hep3B; 48 hours incubation; 10% (v/v) FCS; read-out: EC50, inhibition of Hep3B proliferation
Description: as §1, §2

DAN-G = assay: Proliferation assay (CellTiter-Glo luminescent cell viability assay), DAN-G; conditions: human pancreatic carcinoma DAN-G; 48 hours incubation; 10% (v/v) FCS; read-out: EC50 (effective concentration reducing cell proliferation by 50%), inhibition of DAN-G proliferation
Description: as §1, §2

HeLa = assay: Proliferation assay (CellTiter-Glo luminescent cell viability assay), HeLa; conditions: HeLa (printed as human ovarian carcinoma); 48 hours incubation; 10% (v/v) FCS; read-out: EC50 (effective concentration reducing cell proliferation by 50%), inhibition of HeLa proliferation
Description: as §1, §2

CX-2 = assay: Proliferation assay (CellTiter-Glo luminescent cell viability assay), CX-2; conditions: human colon carcinoma CX-2; 48 hours incubation; 10% (v/v) FCS; read-out: EC50 (effective concentration reducing cell proliferation by 50%), inhibition of CX-2 proliferation
Description: as §1, §2

| pEC50 (HuH7) | SMILES | also measured |
| --- | --- | --- |
| 4.60 | O=C(C1N=Nc2ccccc21)N1CCC(c2nc(-c3ccc4c(c3)OCCO4)cs2)CC1 (stereo not drawn) [XVI] | – |
| 5.22 | O=C(c1csc(-c2cnccn2)n1)N1CCC(c2nc(-c3ccc4c(c3)OCCO4)cs2)CC1 [XIII] | – |
| 4.68 | CCOC(=O)c1cc(-c2csc(C3CCN(C(=O)/C=C/c4ccc5c(c4)OCO5)CC3)n2)on1 [VI] | – |
| 5.31 | Cc1cc(Cl)ccc1NC(=O)COCC(=O)N1CCC(c2nc(-c3ccc4c(c3)OCCO4)cs2)CC1 [XV] | – |
| 5.71 | O=C(CCCc1nc2ccccc2[nH]1)N1CCC(c2nc(-c3cccc(Br)c3)cs2)CC1 [X] | – |
| 4.91 | CCOC(=O)c1cc(-c2csc(C3CCN(C(=O)/C(C)=C/c4cc(OC)c(OC)cc4OC)CC3)n2)on1 [II] | – |
| 6.20 | CCOC(=O)/C=C/C(=O)N1CCC(c2nc(-c3ccc(Cl)c([N+](=O)[O-])c3)cs2)CC1 [XVII] | – |
| 5.24 | CCN(CC)c1ccc(-c2csc(C3CCN(Cc4ccc(N(CCC#N)CCC#N)cc4)CC3)n2)cc1 [XII] | – |
| 5.72 | CCOC(=O)CNC(=O)N1CCC(c2nc(-c3cccc(Br)c3)cs2)CC1 [VIII] | – |
| 5.41 | O=C(C1COc2ccccc2O1)N1CCC(c2nc(-c3ccc4c(c3)OCCO4)cs2)CC1 (stereo not drawn) [IX] | – |
| 4.54 | O=C1CC(C(=O)N2CCC(c3nc(-c4ccc5c(c4)OCCO5)cs3)CC2)CN1Cc1cccs1 (stereo not drawn) [XIV] | – |
| 5.30 | COC(=O)C(NC(=O)N1CCC(c2nc(-c3ccc4c(c3)OCCO4)cs2)CC1)C(C)C (stereo not drawn) [IV] | – |
| 5.79 | CCOC(=O)c1cc(-c2csc(C3CCN(C(=O)C(Cc4ccccc4F)NC(C)=O)CC3)n2)on1 (stereo not drawn) [III] | – |
| 6.48 | O=C(/C=C/c1ccc2c(c1)OCO2)N1CCC(c2nc(-c3ccc4c(c3)OCCO4)cs2)CC1 [Compound I, E-3-{4-[4-(3,4-ethylendioxphenyl)-thiazol-2-yl]-piperidin-1-yl}-1-(3,4-methylendioxyphenyl)-3-oxo-prop-1-ene] | pEC50 (Sk-Br-3): 4.97; pEC50 (HepG2): 6.05; pEC50 (Hep3B): 6.52; pEC50 (DAN-G): 5.33; pEC50 (HeLa): 4.83; pEC50 (CX-2): 4.72 |
| 4.97 | Cc1nn(C)c(Cl)c1/C=C/C(=O)N1CCC(c2nc(-c3ccc4c(c3)OCCO4)cs2)CC1 [V] | pEC50 (Sk-Br-3): < 4.70; pEC50 (DAN-G): 4.96; pEC50 (HeLa): 4.73; pEC50 (CX-2): < 4.70 |
| 5.47 | O=C(c1ccccc1C[S+]([O-])c1ccccc1)N1CCC(c2nc(-c3ccc4c(c3)OCCO4)cs2)CC1 (stereo not drawn) [XI] | – |
| 5.21 | O=C(c1cccnc1OCC(F)(F)F)N1CCC(c2nc(-c3ccc4c(c3)OCCO4)cs2)CC1 [VII] | – |
